Patent US20120225062A1 (priority 2011, published 2012)

Tests used:
Pim 1 = Pim 1 (Homo sapiens, UniProt P11309); experiment: Pim 1 AlphaScreen assay (high ATP)
Experimental: (§1) The activity of Pim 1, Pim 2, & Pim 3 is measured using a homogeneous bead based system quantifying the amount of phosphorylated peptide substrate resulting from kinase-catalyzed phosphoryl transfer to a peptide substrate. Compounds to be tested are dissolved in 100% DMSO and directly distributed to a white 384-well plate at 0.25 μl per well. […] This is followed by the addition of 5 μl/well of Pim 1, Pim 2 or Pim 3 kinase in assay buffer (concentrations described below). Final assay concentrations (described below) are in 2.5% DMSO. The reactions are performed for ˜2 hours, then stopped by the addition of 10 μl of 0.75 μg/ml anti-phospho Ser/Thr antibody (Cell Signaling), 10 μg/ml Protein A AlphaScreen beads (Perkin Elmer), and 10 μg/ml streptavidin coated AlphaScreen beads in stop/detection buffer (50 mM EDTA, 95 mM Tris, pH=7.5, 0.01% Tween-20). The stopped reactions are incubated overnight in the dark. The phosphorylated peptide is detected via an oxygen anion initiated chemiluminescence/fluorescence cascade using the Envision plate reader (Perkin Elmer).

Pim 3 = Pim 3 (Homo sapiens, UniProt Q86V86); experiment: Pim 3 AlphaScreen assay (high ATP)
Pim 2 = Pim 2 (Homo sapiens, UniProt Q9P1W9); experiment: Pim 2 AlphaScreen assay (high ATP)
Experimental: as §1

[1] = test system: KMS11 (human myeloma cell line); experiment: Cell Proliferation Assay (CellTiter-Glo, 3 days); assay type: cell-based; conditions: KMS-11, 72 h, KMS11-luc cells
Experimental: KMS11 (human myeloma cell line), were cultured in IMDM supplemented with 10% FBS, sodium pyruvate and antibiotics. Cells were plated in the same medium at a density of 2000 cells per well into 96 well tissue culture plates, with outside wells vacant, on the day of assay.
Test compounds supplied in DMSO were diluted into DMSO at 500 times the desired final concentrations before dilution into culture media to 2 times final concentrations. Equal volumes of 2× compounds were added to the cells in 96 well plates and incubated at 37° C. for 3 days.
After 3 days plates were equilibrated to room temperature and equal volume of CellTiter-Glow Reagent (Promega) was added to the culture wells. The plates were agitated briefly and luminescent signal was measured with luminometer.
Using the procedures of Cell Proliferation Assay, the EC50 concentrations of compounds of the examples were determined in KMS11 cells as shown in Table 4.

Sequence of Pim 1 (P11309 whole entry): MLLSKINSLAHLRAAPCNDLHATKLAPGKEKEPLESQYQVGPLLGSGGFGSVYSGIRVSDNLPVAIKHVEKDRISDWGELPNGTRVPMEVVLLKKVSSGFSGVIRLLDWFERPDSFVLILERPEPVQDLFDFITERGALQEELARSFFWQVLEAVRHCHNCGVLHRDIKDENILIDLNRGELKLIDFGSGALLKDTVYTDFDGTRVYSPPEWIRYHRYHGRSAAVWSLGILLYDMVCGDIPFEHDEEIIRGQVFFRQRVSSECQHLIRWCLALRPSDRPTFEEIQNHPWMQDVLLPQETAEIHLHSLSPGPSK
Sequence of Pim 2 (Q9P1W9 whole entry): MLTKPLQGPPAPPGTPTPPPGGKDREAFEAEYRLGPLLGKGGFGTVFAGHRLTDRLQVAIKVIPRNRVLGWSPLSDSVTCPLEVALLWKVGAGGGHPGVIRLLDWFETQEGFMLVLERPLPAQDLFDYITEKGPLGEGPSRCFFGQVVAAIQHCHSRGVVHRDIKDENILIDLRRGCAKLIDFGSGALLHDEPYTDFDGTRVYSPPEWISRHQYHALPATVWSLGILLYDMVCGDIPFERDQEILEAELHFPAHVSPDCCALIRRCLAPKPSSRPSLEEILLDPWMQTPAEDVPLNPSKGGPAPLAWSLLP

Structure (SMILES) | IC50 (Pim 1) | IC50 (Pim 3) | IC50 (Pim 2) | EC50 [1]
CCOc1ccc(F)c(-c2nc(C(=O)Nc3cnccc3[C@@H]3C[C@H](C)C[C@H](N)C3)ccc2F)c1F [Example 213, N-(4-((1R,3S,5S)-3-amino-5-methylcyclohexyl)pyridin-3-yl)-6-(3-ethoxy-2,6-difluorophenyl)-5-fluoropicolinamide] | 0.06 nM | 1.45 nM | 8.92 nM | –
C[C@@H]1C[C@H](N)C[C@H](c2ccncc2NC(=O)c2ccc(F)c(-c3c(F)cc(C4(O)COC4)cc3F)n2)C1 [Example 55, N-(4-((1R,3S,5S)-3-amino-5-methylcyclohexyl)pyridin-3-yl)-6-(2,6-difluoro-4-(3-hydroxyoxetan-3-yl)phenyl)-5-fluoropicolinamide] | 0.02 nM | – | 2.42 nM | 24 nM
C[C@H]1C[C@@H](c2ccncc2NC(=O)c2nc(-c3c(F)cc(OC4CCOCC4)cc3F)c(F)cc2N)C[C@@H](N)[C@@H]1O [Example 87, 3-amino-N-(4-((1R,3R,4R,5S)-3-amino-4-hydroxy-5-methylcyclohexyl)pyridin-3-yl)-6-(2,6-difluoro-4-(tetrahydro-2H-pyran-4-yloxy)phenyl)-5-fluoropicolinamide] | – | – | 1.46 nM | 31 nM
C[C@@H]1C[C@H](N)C[C@H](c2ccncc2NC(=O)c2ccc(F)c(-c3c(F)cc(C4=CCCC4)cc3F)n2)C1 [Example 160] | 0.02 nM | – | 3.74 nM | 285 nM
C[C@H]1CN(c2ccncc2NC(=O)c2ccc(F)c(-c3c(F)ccc(OCCO)c3F)n2)C[C@@H](N)[C@@H]1O [Example 31, N-(4-((3R,4R,5S)-3-amino-4-hydroxy-5-methylpiperidin-1-yl)pyridin-3-yl)-6-(2,6-difluoro-3-(2-hydroxyethoxy)phenyl)-5-fluoropicolinamide] | – | – | 1.36 nM | 12 nM
C[C@H]1C[C@@H](c2ccncc2NC(=O)c2ccc(F)c(-c3c(F)cc(C4(F)CCOCC4)cc3F)n2)C[C@@H](N)[C@H]1O [Example 129, N-(4-((1R,3R,4S,5S)-3-amino-4-hydroxy-5-methylcyclohexyl)pyridin-3-yl)-6-(2,6-difluoro-4-(4-fluorotetrahydro-2H-pyran-4-yl)phenyl)-5-fluoropicolinamide] | – | – | – | 78 nM
C[C@H]1C[C@@H](c2ccncc2NC(=O)c2ccc(F)c(-c3c(F)cc(C(F)F)cc3F)n2)C[C@@H](N)[C@@H]1O [Example 58, N-(4-((1R,3R,4R,5S)-3-amino-4-hydroxy-5-methylcyclohexyl)pyridin-3-yl)-6-(4-(difluoromethyl)-2,6-difluorophenyl)-5-fluoropicolinamide] | – | – | – | 42 nM
CC(C)c1cc(F)c(-c2nc(C(=O)Nc3cnccc3[C@H]3C[C@@H](N)[C@H](O)[C@@H](C)C3)ccc2F)c(F)c1 [Example 199, N-(4-((1R,3R,4R,5S)-3-amino-4-hydroxy-5-methylcyclohexyl)pyridin-3-yl)-6-(2,6-difluoro-4-isopropylphenyl)-5-fluoropicolinamide] | – | – | – | 204 nM
C[C@H]1CN(c2ccncc2NC(=O)c2ccc(F)c(-c3c(F)cc(Cl)cc3F)n2)C[C@@H](N)[C@@H]1O [Example 217, N-(4-((3R,4R,5S)-3-amino-4-hydroxy-5-methylpiperidin-1-yl)pyridin-3-yl)-6-(4-chloro-2,6-difluorophenyl)-5-fluoropicolinamide] | – | – | – | 62 nM
N[C@H]1CCC[C@@H](c2ccncc2NC(=O)c2ccc(F)c(-c3c(F)cc(C4(O)CCC4)cc3F)n2)C1 [Example 159, N-(4-((1R,3S)-3-aminocyclohexyl)pyridin-3-yl)-6-(2,6-difluoro-4-(1-hydroxycyclobutyl)phenyl)-5-fluoropicolinamide] | – | – | – | 97 nM
C[C@H]1C[C@@H](c2ccncc2NC(=O)c2ccc(F)c(-c3c(F)cc(C(C)(C)C(=O)O)cc3F)n2)C[C@@H](N)[C@@H]1O [Example 182, 2-(4-(6-(4-((1R,3R,4R,5S)-3-amino-4-hydroxy-5-methylcyclohexyl)pyridin-3-ylcarbamoyl)-3-fluoropyridin-2-yl)-3,5-difluorophenyl)-2-methylpropanoic acid] | – | – | – | > 10000 nM
CSc1cc(F)c(-c2nc(C(=O)Nc3cnccc3[C@H]3C[C@@H](N)[C@@H](O)[C@@H](C)C3)ccc2F)c(F)c1 [Example 19, N-(4-((1R,3R,4S,5S)-3-amino-4-hydroxy-5-methylcyclohexyl)pyridin-3-yl)-6-(2,6-difluoro-4-(methylthio)phenyl)-5-fluoropicolinamide] | – | – | – | 74 nM
C[C@H]1C[C@@H](c2ccncc2NC(=O)c2ccc(F)c(-c3c(F)cc(C4(F)CCOCC4)cc3F)n2)C[C@@H](N)[C@@H]1O [Example 127, N-(4-((1R,3R,4R,5S)-3-amino-4-hydroxy-5-methylcyclohexyl)pyridin-3-yl)-6-(2,6-difluoro-4-(4-fluorotetrahydro-2H-pyran-4-yl)phenyl)-5-fluoropicolinamide] | – | – | – | 59 nM
C[C@@H]1C[C@H](N)C[C@H](c2ccncc2NC(=O)c2ccc(F)c(-c3c(F)cc(C(C)(C)O)cc3F)n2)C1 [Example 236, N-(4-((1R,3S,5S)-3-amino-5-methylcyclohexyl)pyridin-3-yl)-6-(2,6-difluoro-4-(2-hydroxypropan-2-yl)phenyl)-5-fluoropicolinamide] | – | – | – | 13 nM
N[C@H]1CCC[C@@H](c2ccncc2NC(=O)c2ccc(F)c(-c3c(F)cc(N4CCOCC4)cc3F)n2)C1 [Example 166, N-(4-((1R,3S)-3-aminocyclohexyl)pyridin-3-yl)-6-(2,6-difluoro-4-morpholinophenyl)-5-fluoropicolinamide] | – | – | – | 325 nM
N[C@H]1CCC[C@@H](c2ccncc2NC(=O)c2ccc(F)c(-c3c(F)cc(OC4CCOCC4)cc3F)n2)C1 [Example 150, N-(4-((1R,3S)-3-aminocyclohexyl)pyridin-3-yl)-6-(2,6-difluoro-4-(tetrahydro-2H-pyran-4-yloxy)phenyl)-5-fluoropicolinamide] | – | – | – | 324 nM
C[C@H]1C[C@@H](c2ccncc2NC(=O)c2ccc(F)c(-c3c(F)cc(C(C)(C)O)cc3F)n2)C[C@@H](N)[C@@H]1O [Example 66, N-(4-((1R,3R,4R,5S)-3-amino-4-hydroxy-5-methylcyclohexyl)pyridin-3-yl)-6-(2,6-difluoro-4-(2-hydroxypropan-2-yl)phenyl)-5-fluoropicolinamide] | – | – | – | 11 nM
C[C@H]1C[C@@H](c2ccncc2NC(=O)c2ccc(F)c(-c3c(F)cc(C4(O)CCC4)cc3F)n2)C[C@@H](N)[C@@H]1O [Example 60, N-(4-((1R,3R,4R,5S)-3-amino-4-hydroxy-5-methylcyclohexyl)pyridin-3-yl)-6-(2,6-difluoro-4-(1-hydroxycyclobutyl)phenyl)-5-fluoropicolinamide] | – | – | – | 15 nM
C[C@@H]1C[C@H](N)C[C@H](c2ccncc2NC(=O)c2ccc(F)c(-c3c(F)cc(CN4CCCC4=O)cc3F)n2)C1 [Example 144, N-(4-((1R,3S,5S)-3-amino-5-methylcyclohexyl)pyridin-3-yl)-6-(2,6-difluoro-4-((2-oxopyrrolidin-1-yl)methyl)phenyl)-5-fluoropicolinamide] | – | – | 2.61 nM | 55 nM
C[C@H]1C[C@@H](c2ccncc2NC(=O)c2ccc(F)c(-c3c(F)cc(C4(O)CCCC4)cc3F)n2)C[C@@H](N)[C@@H]1O [Example 161, N-(4-((1R,3R,4R,5S)-3-amino-4-hydroxy-5-methylcyclohexyl)pyridin-3-yl)-6-(2,6-difluoro-4-(1-hydroxycyclopentyl)phenyl)-5-fluoropicolinamide] | – | – | – | 34 nM
C[C@H]1CN(c2ccncc2NC(=O)c2ccc(F)c(-c3c(F)cc(F)cc3F)n2)C[C@@H](N)[C@@H]1O [Example 218, N-(4-((3R,4R,5S)-3-amino-4-hydroxy-5-methylpiperidin-1-yl)pyridin-3-yl)-5-fluoro-6-(2,4,6-trifluorophenyl)picolinamide] | – | – | – | 23 nM
CC(C)[C@@H]1C[C@H](N)C[C@H](c2ccncc2NC(=O)c2ccc(F)c(-c3c(F)cc(OC4COC4)cc3F)n2)C1 [Example 183, N-(4-((1R,3S,5S)-3-amino-5-isopropylcyclohexyl)pyridin-3-yl)-6-(2,6-difluoro-4-(oxetan-3-yloxy)phenyl)-5-fluoropicolinamide] | – | – | 0.93 nM | 158 nM
C[C@H]1C[C@@H](c2ccncc2NC(=O)c2ccc(F)c(-c3c(F)cc(CCO)cc3F)n2)C[C@@H](N)[C@@H]1O [Example 34, N-(4-((1R,3R,4R,5S)-3-amino-4-hydroxy-5-methylcyclohexyl)pyridin-3-yl)-6-(2,6-difluoro-4-(2-hydroxyethyl)phenyl)-5-fluoropicolinamide] | – | – | – | 29 nM
COCCOc1cc(F)c(-c2nc(C(=O)Nc3cnccc3[C@@H]3CCC[C@H](N)C3)ccc2F)c(F)c1 [Example 151, N-(4-((1R,3S)-3-aminocyclohexyl)pyridin-3-yl)-6-(2,6-difluoro-4-(2-methoxyethoxy)phenyl)-5-fluoropicolinamide] | – | – | – | 340 nM
C[C@H]1C[C@@H](c2ccncc2NC(=O)c2ccc(F)c(-c3c(F)cc(S(C)(=O)=O)cc3F)n2)C[C@@H](N)[C@@H]1O [Example 14, N-(4-((1R,3R,4R,5S)-3-amino-4-hydroxy-5-methylcyclohexyl)pyridin-3-yl)-6-(2,6-difluoro-4-(methylsulfonyl)phenyl)-5-fluoropicolinamide] | – | – | – | 1440 nM
